Results as given in US6914045B2, “Glycopeptide antibiotics” (Wyeth Holdings Corporation, priority 2001, dated 2005).

Columns and labels:
[1] = anatomic pathology (histopathology of heart and kidney) in mice; format: in vivo; details: CD-1 mice, 20 mg/kg intravenously daily for 9 days, necropsy day 10, microscopic histopathology
Description: Samples of tissues from necropsied mice were formalin-fixed, paraffin-embedded, sectioned, stained with hematoxylin and eosin, and examined microscopically. Histopathologic findings were recorded. These findings were subjectively graded on a scale corresponding to slight, mild, moderate, marked and severe as compared to untreated controls.

[2] = clinical pathology (serum clinical chemistry) in mice; format: in vivo; details: CD-1 mice, 20 mg/kg intravenously daily for 9 days, sera day 10
Description: 20-day-old CD-1 mice were divided into a vehicle control group (5 mice) and a treatment group (5 mice). Samples of glycopeptide antibiotics were administered at 20 mg/kg intravenously daily for 9 days.

Escherichia coli = test: in vitro antibacterial evaluation, MIC by broth dilution; format: cell-based; details: 18 hours at 35° C.
Streptococcus sp. = test: as above; format: cell-based; details: broth dilution, 18 hours at 35° C.
Procedure, shortened: (§1)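 MIC, the lowest antibiotic concentration preventing growth, was read across 64-0.06 μg/mL with 5×10^5 CFU/mL inoculum. Method followed NCCLS M7-A2 broth dilution using Mueller-Hinton II; Gram-positive strains covered recent methicillin-, penicillin- and/or vancomycin-resistant clinical isolates.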

Staphylococcus sp. = test: as above; format: cell-based; details: broth dilution, 18 hours at 35° C.
Procedure, shortened: as §1

Enterococcus sp. = test: as above; format: cell-based; details: broth dilution, 18 hours at 35° C.
Procedure, shortened: as §1

[3] = test system: Staphylococcus aureus-SMITH (GC 4543); test: acute lethal infection in mice; format: in vivo; details: acute lethal infection, female CD-1 mice, intraperitoneal challenge, intravenous 30 min. after infection, 7 day survival
Procedure, shortened: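 Intraperitoneal challenge of female CD-1 mice with a bacterial dose lethal to untreated animals within 24-48 hr; single iv treatment 30 min later, 5 mice per dose level. Survival is scored at day 7 and pooled from three experiments to give the median effective dose.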

COc1ccc2cc(COC3C(CO)OC(OC4C(CO)OC(Oc5ccc(CC6NC(=O)C(C(C)c7ccccc7)NC(=O)CNC(=O)C(CO)NC(=O)C(CC7CNC(=N)N7C7OC(CO)C(O)C(O)C7O)NC(=O)C(CC7CNC(=N)N7)NC6=O)cc5)C(O)C4O)C(O)C3O)ccc2c1 (stereo not drawn) [Example 245a, Cyclo[3-(2-iminoimidazolidin-4-yl)alanyl-3-(3-hexopyranosyl-2-iminoimidazolidin-4-yl)-alanylserylglycyl-β-methylphenylalanyl-O-[4-O-[4-O-[(6-methoxy-2-naphthyl)methyl]-hexopyranosyl]hexopyranosyl]tyrosyl]]
+: Anatomical Pathology (Day 10), Heart [1]
+133%: Clinical Chemistry (Day 10) % of Control, Creatinine [2]
<0.12 µg/mL: MIC Streptococcus pneumoniae (GC 1894) (Streptococcus sp.) | MIC Streptococcus pneumoniae (GC 1894) (Streptococcus sp.; inoculum 5×10^5 CFU/mL, strain GC 1894)
1 µg/mL: MIC Streptococcus agalactiae (GC 4564) (Streptococcus sp.) | MIC Streptococcus pneumoniae (GC 4565) (Streptococcus sp.) | MIC Streptococcus pyogenes (GC 4563) (Streptococcus sp.) | MIC Streptococcus pyogenes (GC 4563) (Streptococcus sp.; inoculum 5×10^5 CFU/mL, strain GC 4563) | MIC Streptococcus agalactiae (GC 4564) (Streptococcus sp.; inoculum 5×10^5 CFU/mL, strain GC 4564) | MIC Streptococcus pneumoniae (GC 4565) (Streptococcus sp.; inoculum 5×10^5 CFU/mL, strain GC 4565) | MIC Coagulase Negative Staphylococcus (GC 4548) (Staphylococcus sp.) | MIC Coagulase Negative Staphylococcus (GC 6257) (Staphylococcus sp.) | MIC Staphylococcus haemolyticus (GC 4546) (Staphylococcus sp.) | MIC Staphylococcus haemolyticus (GC 4546) (Staphylococcus sp.; strain GC 4546) | MIC Coagulase Negative Staphylococcus (GC 4548) (Staphylococcus sp.; strain GC 4548) | MIC Coagulase Negative Staphylococcus (GC 6257) (Staphylococcus sp.; strain GC 6257)
4 µg/mL: MIC Staphylococcus aureus (GC 1131) (Staphylococcus sp.) | MIC Staphylococcus aureus (GC 1131) (Staphylococcus sp.; strain GC 1131) | MIC Enterococcus avium (GC 4558) (Enterococcus sp.) | MIC Enterococcus faecalis (GC 2242) (Enterococcus sp.) | MIC Enterococcus faecalis (GC 3059) (Enterococcus sp.) | MIC Enterococcus faecalis (GC 4553) (Enterococcus sp.) | MIC Enterococcus faecium (GC 2243) (Enterococcus sp.) | MIC Enterococcus faecium (GC 4556) (Enterococcus sp.) | MIC Enterococcus faecium (GC 2243) (Enterococcus sp.; strain GC 2243) | MIC Enterococcus faecalis (GC 4553) (Enterococcus sp.; strain GC 4553) | MIC Enterococcus faecium (GC 4556) (Enterococcus sp.; strain GC 4556) | MIC Enterococcus avium (GC 4558) (Enterococcus sp.; strain GC 4558) | MIC Enterococcus faecalis (GC 2242) (Enterococcus sp.; inoculum 5×10^5 CFU/mL, strain GC 2242) | MIC Enterococcus faecalis (GC 3059) (Enterococcus sp.; inoculum 5×10^5 CFU/mL, strain GC 3059)
1 mg/kg: median effective dose (ED50), Staphylococcus aureus-SMITH (GC 4543) [3]
0.5 µg/mL: MIC Streptococcus pneumoniae (ATCC 6301) (Streptococcus sp.) | MIC Streptococcus pneumoniae (ATCC 6301) (Streptococcus sp.; inoculum 5×10^5 CFU/mL, strain ATCC 6301) | MIC Coagulase Negative Staphylococcus (GC 4549) (Staphylococcus sp.) | MIC Coagulase Negative Staphylococcus (GC 4549) (Staphylococcus sp.; strain GC 4549)
+++: Anatomical Pathology (Day 10), Kidney [1]
2 µg/mL: MIC Escherichia coli (GC 4560) (Escherichia coli) | MIC Coagulase Negative Staphylococcus (GC 4547) (Staphylococcus sp.) | MIC Coagulase Negative Staphylococcus (GC 4551) (Staphylococcus sp.) | MIC Staphylococcus aureus (ATCC 29213) (Staphylococcus sp.) | MIC Staphylococcus aureus (GC 3051) (Staphylococcus sp.) | MIC Staphylococcus aureus (GC 3053) (Staphylococcus sp.) | MIC Staphylococcus aureus (GC 4541) (Staphylococcus sp.) | MIC Staphylococcus aureus (GC 4542) (Staphylococcus sp.) | MIC Staphylococcus aureus (GC 4544) (Staphylococcus sp.) | MIC Staphylococcus aureus (GC 4545) (Staphylococcus sp.) | MIC Staphylococcus aureus-SMITH (GC 4543) (Staphylococcus sp.) | MIC Staphylococcus aureus (ATCC 29213) (Staphylococcus sp.; strain ATCC 29213) | MIC Staphylococcus aureus (GC 3051) (Staphylococcus sp.; strain GC 3051) | MIC Staphylococcus aureus (GC 3053) (Staphylococcus sp.; strain GC 3053) | MIC Staphylococcus aureus (GC 4541) (Staphylococcus sp.; strain GC 4541) | MIC Staphylococcus aureus (GC 4542) (Staphylococcus sp.; strain GC 4542) | MIC Staphylococcus aureus-SMITH (GC 4543) (Staphylococcus sp.; strain GC 4543) | MIC Staphylococcus aureus (GC 4544) (Staphylococcus sp.; strain GC 4544) | MIC Staphylococcus aureus (GC 4545) (Staphylococcus sp.; strain GC 4545) | MIC Coagulase Negative Staphylococcus (GC 4547) (Staphylococcus sp.; strain GC 4547) | MIC Coagulase Negative Staphylococcus (GC 4551) (Staphylococcus sp.; strain GC 4551) | MIC Enterococcus faecium (GC 4557) (Enterococcus sp.) | MIC Enterococcus faecium (GC 4557) (Enterococcus sp.; strain GC 4557)
32 µg/mL: MIC Escherichia coli (ATCC 25922) (Escherichia coli) | MIC Escherichia coli (GC 4559) (Escherichia coli)
+212%: Clinical Chemistry (Day 10) % of Control, BUN [2]
8 µg/mL: MIC Enterococcus faecalis (ATCC 29212) (Enterococcus sp.) | MIC Enterococcus faecalis (GC 2691) (Enterococcus sp.) | MIC Enterococcus faecalis (GC 4552) (Enterococcus sp.) | MIC Enterococcus faecalis (GC 4554) (Enterococcus sp.) | MIC Enterococcus faecalis (GC 6189) (Enterococcus sp.) | MIC Enterococcus faecalis (ATCC 29212) (Enterococcus sp.; strain ATCC 29212) | MIC Enterococcus faecalis (GC 4552) (Enterococcus sp.; strain GC 4552) | MIC Enterococcus faecalis (GC 4554) (Enterococcus sp.; strain GC 4554) | MIC Enterococcus faecalis (GC 6189) (Enterococcus sp.; strain GC 6189) | MIC Enterococcus faecalis (GC 2691) (Enterococcus sp.; inoculum 5×10^5 CFU/mL, strain GC 2691)
